Molecular target: T1, dihydrofolate reductase (DHFR) (Escherichia coli, UniProt P0ABQ4, C152S/C85A)
T1 construct: gene folA
T1 sequence (P0ABQ4 1-159 C85A/C152S): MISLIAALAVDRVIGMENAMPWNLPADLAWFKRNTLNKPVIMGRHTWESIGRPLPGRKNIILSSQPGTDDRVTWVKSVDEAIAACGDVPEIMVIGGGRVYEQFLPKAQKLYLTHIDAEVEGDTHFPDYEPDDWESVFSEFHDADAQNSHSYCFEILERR
Assay: spectrophotometric DHFR activity assay ([…] nm) with in-house purified E. coli DHFR, triplicates
Assay type: biochemical

SMILES | IC50
COc1cc(Cc2cnc(N)nc2N)cc(OC)c1OCc1cc(Cl)c(/N=N\c2c(Cl)cccc2Cl)c(Cl)c1 [TCATa] | 3.3 ± 2.1 nM
COc1cc(Cc2cnc(N)nc2N)cc(OC)c1OCc1cc(Cl)c(/N=N/c2c(Cl)cccc2Cl)c(Cl)c1 [TCATd] | 3.8 ± 1.4 nM

Source: paper PMC8143356, “Mechanism of Resistance Development in E. coli against TCAT, a Trimethoprim-Based Photoswitchable Antibiotic” (Pharmaceuticals, 2021)
